Laboratory results as given in patent publication US20250296971A1, “GASTRIC INHIBITORY PEPTIDE RECEPTOR LIGANDS” (priority 2021, published 2025).
Read-outs that look alike come from different tables or passages of the source. *1 amine or outer side, *2 acyl side, *3 side chain or, on linkers, in order; H or OH if unused. Where a SMILES comes first, the peptide text is derived from it. Bridges are numbered along the chain shown (N, C = ends). [ ]: non-standard residue; d: D form. The star is where a group is joined. X16 = NC(=O)[C@H](CCCCNC(=O)CN1CCN2CCN3CCN(CC1)CC(=O)[O][Lu]([O]C(=O)C2)[O]C(=O)C3)NC(=O)CCC(=O)NCCCOCCOCCOCCCN*; X11 = O=C(CN1CCN2CCN3CCN(CC1)CC(=O)[O][In]([O]C(=O)C2)[O]C(=O)C3)NCCCOCCOCCOCCCN*; X3 = O=C(O)CN1CCN(CC(=O)O)CCN(CC(=O)NCCCOCCOCCOCCCN*)CCN(CC(=O)O)CC1; NH(1-deoxy-D-glucityl) = OC[C@@H](O)[C@@H](O)[C@H](O)[C@@H](O)CN*; DOTA = O=C(O)CN1CCN(CC(=O)O)CCN(CC(=O)*)CCN(CC(=O)O)CC1; Trp(5-Cl) = N[C@@H](Cc1c[nH]c2ccc(Cl)cc12)C(=O)O; Phe(3,4-Cl2) = N[C@@H](Cc1ccc(Cl)c(Cl)c1)C(=O)O; Pyridine(2,6-diCH2) = c1cc(C[*:1])nc(C[*:2])c1; Pro(4R-NH2) = N[C@H]1CN[C@H](C(=O)O)C1; 1Nal = N[C@@H](Cc1cccc2ccccc12)C(=O)O; mXylylene = c1cc(C[*:1])cc(C[*:2])c1; Glutaryl = O=C(CCCC(=O)[*:2])[*:1]; X7 = c1cc(CSCCN[*:2])cc(C[*:1])c1; X1 = O=C(CN1CCC(N[*:1])CC1)[*:2]; NMeD = CN[C@@H](CC(=O)O)C(=O)O; Suc = O=C(CCC(=O)[*:2])[*:1]; hLeu = CC(C)CC[C@H](N)C(=O)O; αMeK = C[C@](N)(CCCCN)C(=O)O; Thp = NC1(C(=O)O)CCOCC1; Aib = CC(C)(N)C(=O)O; Sar = CNCC(=O)O

Target: T1, GIPR (CHO-K1-hGIPR cells) (Homo sapiens, UniProt P48546)
T1 construct: host or cells: CHO-K1
T1 sequence (P48546 22-466): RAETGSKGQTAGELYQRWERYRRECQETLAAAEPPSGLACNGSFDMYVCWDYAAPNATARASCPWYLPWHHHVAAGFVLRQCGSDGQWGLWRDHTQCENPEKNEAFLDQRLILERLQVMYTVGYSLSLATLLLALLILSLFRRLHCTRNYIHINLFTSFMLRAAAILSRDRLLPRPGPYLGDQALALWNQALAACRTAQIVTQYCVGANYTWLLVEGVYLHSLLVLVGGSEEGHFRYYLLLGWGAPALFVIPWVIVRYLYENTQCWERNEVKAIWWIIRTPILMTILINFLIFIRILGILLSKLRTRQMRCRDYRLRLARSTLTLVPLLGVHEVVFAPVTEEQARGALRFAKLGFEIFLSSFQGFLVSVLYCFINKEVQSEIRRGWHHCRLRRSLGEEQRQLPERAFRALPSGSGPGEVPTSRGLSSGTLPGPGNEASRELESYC
Assay: FACS binding assay
Procedure: In order to determine binding of compounds according to the present invention to GIPR-expressing cells, a FACS binding assay was established.
CHO-K1-hGIPR cells (GenScript Biotech, #M00486) were cultured in Ham's F12 medium (Sigma-Aldrich, #N4888) including 10% fetal calf serum (FCS), 2 mM L-glutamine, 100 U/mL penicillin, 100 μg/mL streptomycin, 200 μg/mL Zeocin and 100 μg/mL HygromycinB. Cells were detached with Accutase (Biolegend, #BLD-423201) and washed in FACS buffer (PBS including 1% FCS). Cells were diluted in FACS buffer to a final concentration of 500.000 cells per mL. 200 μL of the cell suspension were transferred to a u-shaped non-binding 96-well plate (Greiner) and cells were washed in ice-cold FACS buffer.
Cells were washed twice in FACS buffer. An additional incubation step with 1 μg/mL APC-Streptavidin (Miltenyi; #130-106-791) in 50 μL FACS buffer for 30 min on ice was performed followed by two washes with FACS buffer.
Cells were analyzed in an Attune NxT flow cytometer. Median fluorescence intensities (MFI) of the APC/Cy5-channel were calculated by Attune NxT software. MFI values were plotted against peptide concentration and four parameter logistic (4PL) curve fitting and EC50/pEC50 or IC50/pIC50 calculations were performed using ActivityBase software.

[1] = competition with 20 nM GIP-057, 4° C. for 1 hour, read-out: pIC50 Category (converted)
[2] = competition with 20 nM GIP-057, 4° C., 1 hour, read-out: pIC50 Category (converted)

Molecule	IC50 [1]	also measured
CC[C@H](C)[C@@H]1NC(=O)[C@H](CC(C)C)NC(=O)[C@H](C)NC(=O)[C@@H](NC(=O)[C@H](CC(C)C)NC(=O)[C@H](CCC(=O)O)NC(=O)[C@@H]2CCCN2C(=O)[C@H](Cc2c[nH]c3ccccc23)NC(=O)[C@H](Cc2c[nH]c3ccccc23)NC(=O)[C@H](CC(=O)O)NC(=O)[C@H](C)NC(=O)[C@@H](N)CCSC)CSCc2cccc(c2)CSC[C@@H](C(N)=O)NC1=O [GIP-249] (H-MADWWPELCALIC-NH2; linker 9-13 via mXylylene)	0.01 to 0.0794 µM	–
HO-Succinyl-Trp-5Clw-Hyp-Glu-leu-[Cys(2Lut)-Apc(MeO2kDaPEGAc)-Leu-Ile-Cys]-APAc-Lys(DOTA)-NH2 [GIP-143]	–	pIC50 Category (competition with 20 nM GIP-057, 4° C., 1 hour): B (pIC50 values between 7.1 and 8.0)
CC[C@H](C)[C@@H]1NC(=O)[C@H](CC(C)C)NC(=O)[C@@H](C)NC(=O)[C@@H](NC(=O)[C@@H](CC(C)C)NC(=O)[C@H](CCC(=O)O)NC(=O)[C@@H]2CCCN2C(=O)[C@H](Cc2c[nH]c3ccccc23)NC(=O)[C@H](Cc2c[nH]c3ccccc23)NC(=O)[C@H](CC(=O)O)NC(=O)CCC(=O)NCCCOCCOCCOCCCNC(=O)CN2CCN(CC(=O)O)CCN(CC(=O)O)CCN(CC(=O)O)CC2)CSCc2cccc(c2)CSC[C@@H](C(=O)O)NC1=O [GIP-285, DOTA-Ttds-Asp-Trp-Trp-Pro-Glu-leu-[Cys(3MeBn)-ala-Leu-Ile-Cys]-OH] ({X3-Suc}-DWWPE[dL]C[dA]LIC-OH; linker 7-11 via mXylylene)	> 1 µM	–
CC[C@H](C)[C@@H]1NC(=O)[C@H](CC(C)C)NC(=O)C2(CCOCC2)NC(=O)[C@@H](NC(=O)[C@@H](CC(C)C)NC(=O)[C@H](CCC(=O)O)NC(=O)[C@@H]2CCCN2C(=O)[C@H](Cc2c[nH]c3ccc(Cl)cc23)NC(=O)[C@H](Cc2c[nH]c3ccccc23)NC(=O)[C@H](CC(=O)O)NC(=O)CCC(=O)NCCCOCCOCCOCCCNC(=O)CN2CCN3CCN4CCN(CC2)CC(=O)[O][In]([O]C(=O)C3)[O]C(=O)C4)CSCc2cccc(c2)CSCCNC1=O [GIP-150, InDOTA-Ttds-Asp-Trp-5Clw-Pro-Glu-leu-[Cys(3MeBn)-Thp-Leu-Ile-AET]] ({X11-Suc}-DW[Trp(5-Cl)]PE[dL]C[Thp]LI; linker 7-C via X7)	–	IC50 [2]: < 0.01 µM
CC[C@H](C)[C@@H]1NC(=O)[C@H](CC(C)C)NC(=O)C(C)(C)NC(=O)[C@@H](NC(=O)[C@@H](CC(C)C)NC(=O)[C@H](CCC(=O)O)NC(=O)[C@@H]2CCCN2C(=O)[C@H](Cc2cccc3ccccc23)NC(=O)[C@H](Cc2c[nH]c3ccccc23)NC(=O)[C@H](CC(=O)O)NC(C)=O)CSCc2cccc(c2)CSC[C@@H](C(=O)NCCCOCCOCCOCCCNC(=O)CCC(=O)N[C@@H](CCCCNC(=O)CN2CCN3CCN4CCN(CC2)CC(=O)[O][Lu]([O]C(=O)C3)[O]C(=O)C4)C(N)=O)NC1=O [GIP-172, Ac-Asp-Trp-1Ni-Pro-Glu-leu-[Cys(3MeBn)-Aib-Leu-Ile-Cys]-Ttds-Lys(LuDOTA)-NH2] (Ac-DW[1Nal]PE[dL]C[Aib]LIC-X16; linker 7-11 via mXylylene)	–	IC50 (pIC50 Category, competition with 20 nM GIP-057, 4° C., 1 hour): 0.01 to 0.0794 µM
CC[C@H](C)[C@@H]1NC(=O)[C@H](CCC(C)C)NC(=O)C(C)(C)NC(=O)[C@@H](NC(=O)[C@@H](CC(C)C)NC(=O)[C@H](CCC(=O)O)NC(=O)[C@@H]2CCCN2C(=O)[C@H](Cc2c[nH]c3ccc(Cl)cc23)NC(=O)[C@H](Cc2c[nH]c3ccccc23)NC(=O)[C@H](CC(=O)O)NC(=O)CCC(=O)NCCCOCCOCCOCCCNC(=O)CN2CCN(CC(=O)O)CCN(CC(=O)O)CCN(CC(=O)O)CC2)CSCc2cccc(c2)CSCCNC1=O [GIP-099, DOTA-Ttds-Asp-Trp-5Clw-Pro-Glu-leu-[Cys(3MeBn)-Aib-Hle-Ile-AET]] ({X3-Suc}-DW[Trp(5-Cl)]PE[dL]C[Aib][hLeu]I; linker 7-C via X7)	–	IC50 [2]: < 0.01 µM
CC[C@H](C)[C@@H]1NC(=O)[C@H](CC(C)C)NC(=O)[C@@H](C)NC(=O)[C@@H](NC(=O)[C@H](CC(C)C)NC(=O)[C@H](CCC(=O)O)NC(=O)[C@@H]2CCCN2C(=O)[C@H](Cc2c[nH]c3ccccc23)NC(=O)[C@H](Cc2c[nH]c3ccccc23)NC(=O)[C@H](CC(=O)O)NC(C)=O)CSCc2cccc(c2)CSCCNC1=O [GIP-250, Ac-Asp-Trp-Trp-Pro-Glu-Leu-[Cys(3MeBn)-ala-Leu-Ile-AET]] (Ac-DWWPELC[dA]LI; linker 7-C via X7)	0.01 to 0.0794 µM	–
CC[C@H](C)[C@@H]1NC(=O)[C@H](CC(C)C)NC(=O)C(C)(C)NC(=O)[C@@H](NC(=O)[C@H](CC(C)C)NC(=O)[C@H](CCC(=O)O)NC(=O)[C@@H]2CCCN2C(=O)[C@H](Cc2c[nH]c3ccccc23)NC(=O)[C@H](Cc2c[nH]c3ccccc23)NC(=O)[C@H](CC(=O)O)N(C)C(=O)CCC(=O)NCCCOCCOCCOCCCNC(=O)CN2CCN(CC(=O)O)CCN(CC(=O)O)CCN(CC(=O)O)CC2)CSCc2cccc(c2)CSCCNC1=O [GIP-130, DOTA-Ttds-Nmd-Trp-Trp-Pro-Glu-Leu-[Cys(3MeBn)-Aib-Leu-Ile-AET]] ({X3-Suc}-[NMeD]WWPELC[Aib]LI; linker 7-C via X7)	–	IC50 [2]: 0.01 to 0.0794 µM

Second part, led by results:

IC50 [1]	Molecule	also measured
< 0.01 µM	CC[C@H](C)[C@@H]1NC(=O)[C@H](CC(C)C)NC(=O)[C@](C)(CCCCNC(=O)CN2CCN(CC(=O)O)CCN(CC(=O)O)CCN(CC(=O)O)CC2)NC(=O)[C@@H](NC(=O)[C@@H](CC(C)C)NC(=O)[C@H](CCC(=O)O)NC(=O)[C@@H]2C[C@@H](N)CN2C(=O)[C@H](Cc2c[nH]c3ccc(Cl)cc23)NC(=O)[C@H](Cc2c[nH]c3ccccc23)NC(=O)[C@H](CC(=O)O)NC(=O)CCCC(=O)NC[C@H](O)[C@@H](O)[C@H](O)[C@H](O)CO)CSCc2cccc(n2)CSC[C@@H](C(=O)NC2CCN(CC(=O)N[C@H](CCC(=O)NC[C@H](O)[C@@H](O)[C@H](O)[C@H](O)CO)C(N)=O)CC2)NC1=O [GIP-371, AGLU-Glutar-Asp-Trp-5Clw-Tap-Glu-leu-[Cys(2Lut)-Amk(DOTA)-Leu-Ile-Cys]-APAc-glu(AGLU)-NH] ({NH(1-deoxy-D-glucityl)-Glutaryl}-DW[Trp(5-Cl)][Pro(4R-NH2)]E[dL]C[αMeK](DOTA)LIC[X1][dE](NH(1-deoxy-D-glucityl))-NH2; linker 7-11 via Pyridine(2,6-diCH2))	–
> 1 µM	CC[C@H](C)[C@@H]1NC(=O)[C@H](CC(C)C)NC(=O)[C@@H](NC(=O)[C@H](CCC(=O)O)NC(=O)[C@@H](CC(C)C)NC(=O)[C@H](Cc2c[nH]c3ccc(Cl)cc23)NC(=O)[C@@H]2CCCN2C(=O)[C@H](CC(=O)O)NC(=O)[C@H](Cc2c[nH]c3ccccc23)NC(=O)CCC(=O)NCCCOCCOCCOCCCNC(=O)CN2CCN(CC(=O)O)CCN(CC(=O)O)CCN(CC(=O)O)CC2)CSCc2cccc(c2)CSCCNC(=O)C(C)(C)NC1=O [GIP-304, DOTA-Ttds-Trp-Asp-Pro-5Clw-leu-Glu-[Cys(3MeBn)-Leu-Ile-Aib-AET]] ({X3-Suc}-WDP[Trp(5-Cl)][dL]ECLI[Aib]; linker 7-C via X7)	–
> 1 µM	CC[C@H](C)[C@@H]1NC(=O)[C@H](CC(C)C)NC(=O)[C@H](C)NC(=O)[C@@H](NC(=O)[C@H](CC(C)C)NC(=O)[C@H](CCC(=O)O)NC(=O)[C@@H]2CCCN2C(C)=O)CSCc2cccc(c2)CSC[C@@H](C(N)=O)NC1=O [GIP-326, Ac-Pro-Glu-Leu-[Cys(3MeBn)-Ala-Leu-Ile-Cys]-NH2] (Ac-PELCALIC-NH2; linker 4-8 via mXylylene)	–
> 1 µM	CC[C@H](C)[C@@H]1NC(=O)[C@H](CC(C)C)NC(=O)C2(CCOCC2)NC(=O)[C@@H](NC(=O)[C@@H](CC(C)C)NC(=O)[C@H](CCC(=O)O)NC(=O)CN(C)C(=O)[C@H](Cc2ccc(Cl)c(Cl)c2)NC(=O)[C@H](Cc2ccc(Cl)c(Cl)c2)NC(=O)[C@H](CC(=O)O)NC(C)=O)CSCc2cccc(n2)CSC[C@@H](C(N)=O)NC1=O [GIP-357, Ac-Asp-Eaa-Eaa-Nmg-Glu-leu-[Cys(2Lut)-Thp-Leu-Ile-Cys]-NH2] (Ac-D[Phe(3,4-Cl2)][Phe(3,4-Cl2)][Sar]E[dL]C[Thp]LIC-NH2; linker 7-11 via Pyridine(2,6-diCH2))	–
